Values quoted from earlier work in patent US11155746B2, “Compositions and methods for reducing hydrogen sulfide and microbial influenced corrosion in crude oil, natural gas, and in associated equipment” (priority 2017, dated 2021).

Conditions: atmospheric exposure

**Q.** Which “exposure concentration that can be rapidly fatal” value does the source give for `S` [H2S, hydrogen sulfide] here?
**A.** above 600 ppm

**Q.** And the “exposure concentration that can cause damage to internal organs” value?
**A.** above 100 ppm
